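Interpolation was linear, between the two tested concentrations surrounding the appropriate level; five concentrations were tested over 48 hours in 96-well plates. GI50 = concentration required for 50% inhibition of growth. TGI is the concentration that stops growth completely.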
Experiments:
Assay in all cases: inhibition of tumour cell growth, NCI panel, 48 h; in the data active = GI50 below about 0.43 µM; inactive = the rest
[1] = system: CCRF-CEM leukemia
[2] = system: OVCAR-4 ovarian
[3] = system: CAKI-1 renal
[4] = system: UACC-257 melanoma
[5] = system: K-562 leukemia
[6] = system: PC-3 prostate
[7] = system: OVCAR-3 ovarian
[8] = system: ACHN renal
[9] = system: SF-295 CNS
[10] = system: KM12 colon
[11] = system: SF-268 CNS
[12] = system: HT29 colon
[13] = system: DU-145 prostate
[14] = system: SK-MEL-28 melanoma
[15] = system: SN12C renal
[16] = system: UO-31 renal
[17] = system: SW-620 colon
[18] = system: UACC-62 melanoma
[19] = system: SF-539 CNS
[20] = system: SK-MEL-5 melanoma
[21] = system: OVCAR-8 ovarian
[22] = system: A549 NSCLC
[23] = system: A498 renal
[24] = system: U251 CNS
[25] = system: SK-MEL-2 melanoma
[26] = system: HCC-2998 colon
[27] = system: T-47D breast
[28] = system: RPMI-8226 leukemia
[29] = system: NCI-H226 lung
[30] = system: SK-OV-3 ovarian
[31] = system: 786-0 renal
[32] = system: RXF 393 renal
[33] = system: SNB-75 CNS
[34] = system: NCI-H23 lung
[35] = system: HCT-116 colon
[36] = system: HOP-92 NSCLC
[37] = system: IGROV1 ovarian
[38] = system: NCI-H522 lung
[39] = system: BT-549 breast
[40] = system: MCF7 breast
[41] = system: EKVX NSCLC
[42] = system: MOLT-4 leukemia
[43] = system: COLO 205 colon
[44] = system: SNB-19 CNS
[45] = system: MDA-MB-231 breast
[46] = system: MALME-3M melanoma
[47] = system: HOP-62 NSCLC
[48] = system: OVCAR-5 ovarian
[49] = system: MDA-MB-435
[50] = system: HCT-15 colon
[51] = system: HS 578T breast
[52] = system: LOX IMVI melanoma
[53] = system: TK-10 renal
[54] = system: M14 melanoma
[55] = system: NCI-H460 lung
[56] = system: NCI/ADR-RES ovarian
[57] = system: SR leukemia

CC1SC(c2cccs2)N(NC(=O)C(O)c2ccccc2)C1=O (centres undefined)
> 100 µM: TGI [1] | TGI [2] | TGI [3] | TGI [4] | TGI [5] | TGI [6] | TGI [7] | TGI [8] | TGI [9] | TGI [10] | TGI [11] | TGI [12] | TGI [13] | TGI [14] | TGI [15] | TGI [16] | TGI [17] | TGI [18] | TGI [19] | TGI [20] | TGI [21] | TGI [22] | TGI [23] | TGI [24] | TGI [25] | TGI [26] | TGI [27] | TGI [28] | TGI [29] | TGI [30] | TGI [31] | TGI [32] | TGI [33] | TGI [34] | TGI [35] | TGI [36] | TGI [37] | TGI [38] | TGI [39] | TGI [40] | TGI [41] | TGI [42] | TGI [43] | TGI [44] | TGI [45] | TGI [46] | TGI [47] | TGI [48] | TGI [49] | TGI [50] | TGI [51] | TGI [52] | TGI [53] | TGI [54] | TGI [55]
inactive: GI50 [1] > 100 µM | GI50 [2] > 100 µM | GI50 [3] > 100 µM | GI50 [4] > 100 µM | GI50 [5] > 100 µM | GI50 [6] > 100 µM | GI50 [7] > 100 µM | GI50 [8] > 100 µM | GI50 [9] > 100 µM | GI50 [10] > 100 µM | GI50 [11] > 100 µM | GI50 [12] > 100 µM | GI50 [13] > 100 µM | GI50 [14] > 100 µM | GI50 [15] > 100 µM | GI50 [16] > 100 µM | GI50 [17] > 100 µM | GI50 [18] > 100 µM | GI50 [19] > 100 µM | GI50 [20] > 100 µM | GI50 [21] > 100 µM | GI50 [22] > 100 µM | GI50 [23] > 100 µM | GI50 [24] > 100 µM | GI50 [25] > 100 µM | GI50 [26] > 100 µM | GI50 [27] > 100 µM | GI50 [28] > 100 µM | GI50 [29] > 100 µM | GI50 [30] > 100 µM | GI50 [31] > 100 µM | GI50 [32] > 100 µM | GI50 [33] > 100 µM | GI50 [34] > 100 µM | GI50 [35] > 100 µM | GI50 [36] > 100 µM | GI50 [37] > 100 µM | GI50 [38] > 100 µM | GI50 [39] > 100 µM | GI50 [40] > 100 µM | GI50 [41] > 100 µM | GI50 [42] > 100 µM | GI50 [43] > 100 µM | GI50 [44] > 100 µM | GI50 [45] > 100 µM | GI50 [46] > 100 µM | GI50 [47] > 100 µM | GI50 [48] > 100 µM | GI50 [49] > 100 µM | GI50 [50] > 100 µM | GI50 [51] > 100 µM | GI50 [52] > 100 µM | GI50 [53] > 100 µM | GI50 [54] > 100 µM | GI50 [55] > 100 µM

CC(=O)O[C@H]1C(=O)[C@]2(C)[C@@H](OC(=O)OCC(O)CO)C[C@H]3OC[C@@]3(OC(C)=O)[C@H]2[C@H](OC(=O)c2ccccc2)[C@]2(O)C[C@H](OC(=O)[C@H](O)[C@@H](NC(=O)c3ccccc3)c3ccccc3)C(C)=C1C2(C)C (some centres undefined)
17.2 µM: TGI [45]
19.6 µM: TGI [20]
27.6 µM: TGI [55]
22.2 µM: TGI [4]
0.683 µM: TGI [43]
> 100 µM: TGI [5] | TGI [8] | TGI [15] | TGI [16] | TGI [22] | TGI [30] | TGI [41] | TGI [44]
70.8 µM: TGI [53]
> 85.3 µM: TGI [36]
25 µM: TGI [52]
22.1 µM: TGI [17]
> 43.2 µM: TGI [34]
> 38.9 µM: TGI [35]
31.3 µM: TGI [42]
> 83.9 µM: TGI [2]
> 68.8 µM: TGI [3]
> 57.7 µM: TGI [37]
4.94 µM: TGI [56]
21.2 µM: TGI [18]
20.9 µM: TGI [48]
39.1 µM: TGI [14]
> 70.8 µM: TGI [6]
1.04 µM: TGI [32]
22.9 µM: TGI [39]
> 39.7 µM: TGI [40]
15.8 µM: TGI [57]
< 0.01 µM: TGI [7] | TGI [19] | TGI [26] | TGI [28] | TGI [33] | TGI [51]
15.6 µM: TGI [24]
> 67.8 µM: TGI [11]
13.7 µM: TGI [47]
31 µM: TGI [1]
10.9 µM: TGI [50]
> 78.1 µM: TGI [21]
